According to patent US7557102B2, “Pyrazolidine-1,2-dicarboxyldiphenylamide derivatives as coagulation factor Xa inhibitors for the treatment of thromboses” (Merck Patent GmbH, priority 2003, dated 2009):

These compounds were tested against FXa (Homo sapiens, UniProt P00742) (assay: Inhibition of factor Xa (Table 1, Pharmacological Data)).
Format: biochemical

Chain of FXa (P00742 235-488 limits assumed): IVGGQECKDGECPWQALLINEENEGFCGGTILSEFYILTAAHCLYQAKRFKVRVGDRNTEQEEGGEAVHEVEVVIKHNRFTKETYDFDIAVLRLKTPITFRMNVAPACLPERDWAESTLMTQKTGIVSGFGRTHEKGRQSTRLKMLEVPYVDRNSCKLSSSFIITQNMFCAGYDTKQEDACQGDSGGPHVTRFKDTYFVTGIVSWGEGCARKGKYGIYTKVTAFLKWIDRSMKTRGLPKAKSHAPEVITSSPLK
Chain of FXa (P00742 41-179 limits assumed): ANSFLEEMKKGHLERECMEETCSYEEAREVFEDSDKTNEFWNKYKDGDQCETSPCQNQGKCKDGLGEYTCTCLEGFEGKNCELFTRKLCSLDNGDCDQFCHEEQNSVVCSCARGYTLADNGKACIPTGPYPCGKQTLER

In order of rising IC50:
1. O=C(Nc1ccc(Br)cc1)N1CCCN1C(=O)Nc1ccc(-n2ccccc2=O)cc1 [Compound A3, 1-N-[(4-bromophenyl)]-2-N-{[4-(2-oxo-2H-pyridin-1-yl)phenyl]}pyrazolidine-1,2-dicarboxamide]  0.055 µM
2. C#Cc1ccc(NC(=O)N2CCCN2C(=O)Nc2ccc(N3CCOCC3=O)c(Cl)c2)cc1 [Compound A1, 1-N-[(4-Ethynylphenyl)]-2-N-{[3-chloro-4-(3-oxomorpholin-4-yl)phenyl]}-pyrazolidine-1,2-dicarboxamide]  0.075 µM
3. O=C1COCCN1c1ccc(NC(=O)N2CCCN2C(=O)Nc2ccc(Cl)cc2)cc1Cl [Compound A2, 1-N-[(4-chlorophenyl)]-2-N-{[3-chloro-4-(3-oxomorpholin-4-yl)phenyl]}-pyrazolidine-1,2-dicarboxamide]  0.12 µM
